Experimental data from ChEMBL document CHEMBL1151905, “Discovery of 5-substituted 2-amino-4-chloro-8-((4-methoxy-3,5-dimethylpyridin-2-yl)methyl)-7,8-dihydropteridin-6(5H)-ones as potent and selective Hsp90 inhibitors” (Bioorg Med Chem Lett, 2009).
pIC50: −log10 of the molar value. Converted amounts (≈) assume the structure as drawn.

Experiments:
BT-474 = test: Growth inhibition of human BT474 cells; assay type: functional, cell-based
MCF7 [1] = test: Growth inhibition of human MCF7 cells; assay type: functional, cell-based
HT-29 [2] = test: Growth inhibition of human HT-29 cells; assay type: functional, cell-based
SK-BR-3 = test: Growth inhibition of human SKBR3 cells; assay type: functional, cell-based
[3] = Inhibition of HSP90 by fluorescence polarization assay
Heat shock protein HSP90 = Heat shock protein HSP90 (Homo sapiens, UniProt P07900+P08238); test: Inhibition of HSP90 in human SKBR3 cells assessed as induction of Her2 degradation; assay type: cell-based; settings: sk-br-3
HMEC [4] = test: Growth inhibition of HMEC cells; assay type: cell-based; settings: Homo sapiens
MCF7 [5] = test: Selectivity index, ratio of IC50 for HMEC cells to IC50 for human MCF7 cells; assay type: functional
HMEC [6] = test: Selectivity index, ratio of IC50 for HMEC cells to IC50 for human SKBR3 cells; assay type: functional
HMEC [7] = test: Selectivity index, ratio of IC50 for HMEC cells to IC50 for human BT474 cells; assay type: functional
HT-29 [8] = test: Selectivity index, ratio of IC50 for HMEC cells to IC50 for human HT-29 cells; assay type: functional
[9] = Metabolic stability in mouse liver microsomes; assay type: ADME, Microsome
[10] = Aqueous solubility at pH 3; assay type: physicochemical
[11] = Metabolic stability in rat liver microsomes; assay type: ADME, Microsome
[12] = Metabolic stability in human liver microsomes; assay type: ADME, Microsome
[13] = Oral bioavailability in rat; assay type: ADME, organism-based; settings: in vivo

| Structure (SMILES) | pIC50 (BT-474) | pIC50 (MCF7 [1]) | pIC50 (HT-29 [2]) | pIC50 (SK-BR-3) | pIC50 [3] | IC50 (Heat shock protein HSP90) [µM] | also measured |
| --- | --- | --- | --- | --- | --- | --- | --- |
| COc1c(C)cnc(CN2c3nc(N)nc(Cl)c3N(CC(C)C)C(=O)[C@@H]2C)c1C | – | – | – | – | – | > 5 | – |
| COc1c(C)cnc(CN2c3nc(N)nc(Cl)c3N(CC(C)C)C(=O)[C@@H]2C(C)C)c1C | – | – | – | – | – | > 5 | – |
| Cc1cnc(CN2CC(=O)N(CC(C)C)c3c(Cl)nc(N)nc32)c(C)c1Cl | 6.62 | 6.33 | 6.55 | 6.96 | – | 0.59 | – |
| COc1c(C)cnc(CN2CC(=O)N(CC(C)C)c3c(C)nc(N)nc32)c1C | – | – | – | – | – | 0.98 | – |
| COc1nc(CN2CC(=O)N(CC(C)C)c3c(Cl)nc(N)nc32)c(Cl)c(OC)c1OC | – | – | – | – | – | > 5 | – |
| COc1c(C)cnc(CN2CC(=O)Nc3c(Cl)nc(N)nc32)c1C | 6.19 | 5.83 | 5.93 | 6.41 | 6.06 | 0.57 | half-life [9]: > 60 min; solubility [10]: 381 µM (≈ 133 µg/mL); half-life [11]: > 60 min; half-life [12]: > 60 min; bioavailability [13]: 60% |
| COc1c(C)cnc(CN2CC(OC3CCCC3)=Nc3c(Cl)nc(N)nc32)c1C | 8.00 | 7.40 | 7.70 | 8.30 | – | 0.01 | – |
| COc1c(C)cnc(CN2CC(=O)N(C(C)C(=O)NCCN(C)C)c3c(Cl)nc(N)nc32)c1C (stereo not drawn) | 7.22 | 6.92 | 7.00 | 7.52 | – | 0.1 | – |
| COc1c(C)cnc(CN2c3nc(N)nc(Cl)c3NC(=O)[C@@H]2C(C)C)c1C | 6.12 | 5.80 | 5.97 | 6.37 | 5.67 | 0.65 | – |
| COc1c(C)cnc(CN2c3nc(N)nc(Cl)c3NC(=O)[C@@H]2CCO)c1C | – | – | – | – | 6.19 | 0.28 | – |
| COc1c(C)cnc(CN2c3nc(N)nc(Cl)c3NC(=O)[C@@H]2C)c1C | 6.33 | 6.03 | 6.18 | 6.60 | – | 0.43 | – |
| COc1c(C)cnc(CN2CC(=O)N(CCCC(C)C)c3c(Cl)nc(N)nc32)c1C | 5.78 | 5.51 | 5.65 | 6.01 | 6.05 | 1.91 | – |
| COc1c(C)cnc(Cn2c(=O)cnc3c(Cl)nc(N)nc32)c1C | – | – | – | – | – | > 10 | – |

Now from value to compound, other results behind:

| pIC50 (BT-474) | pIC50 (MCF7 [1]) | pIC50 (HT-29 [2]) | pIC50 (SK-BR-3) | pIC50 [3] | IC50 (Heat shock protein HSP90) [µM] | Structure (SMILES) | also measured |
| --- | --- | --- | --- | --- | --- | --- | --- |
| 6.39 | 6.10 | 6.33 | 6.66 | 6.40 | 0.35 | COc1c(C)cnc(CN2c3nc(N)nc(Cl)c3NC(=O)[C@H]2C)c1C | – |
| 6.28 | 5.88 | 5.97 | 6.52 | 6.18 | 0.51 | COc1c(C)cnc(CN2CC(=O)N(CCN3CCCC3)c3c(Cl)nc(N)nc32)c1C | – |
| 6.54 | 6.09 | 6.48 | 6.92 | – | 0.11 | COc1c(C)cnc(CN2CC(=O)N(C3CCCC3)c3c(Cl)nc(N)nc32)c1C | – |
| 7.52 | 7.30 | 7.22 | 7.70 | 7.15 | 0.05 | COc1c(C)cnc(CN2CC(=O)N(C(C)C)c3c(Cl)nc(N)nc32)c1C | pIC50 (HMEC [4]): 6.49 |
| – | – | – | – | – | 1.07 | COc1nc(N)nc2c1N(CC(C)C)C(=O)CN2Cc1ncc(C)c(OC)c1C | – |
| – | – | – | – | < 5.30 | > 5 | COc1c(C)cnc(CN2CCNc3c(Cl)nc(N)nc32)c1C | – |
| < 4.00 | 5.67 | 5.92 | < 5.30 | – | > 10 | COc1c(C)cnc(CN2CC(=O)N(C(=O)NCCN3CCOCC3)c3c(Cl)nc(N)nc32)c1C | – |
| 7.52 | 7.00 | 7.40 | 8.00 | – | 0.16 | COc1ccnc(CN2CC(=O)N(CC(C)C)c3c(Cl)nc(N)nc32)c1OC | Ratio IC50 (MCF7 [5]): 2; pIC50 (HMEC [4]): 6.62; Ratio IC50 (HMEC [6]): 6; Ratio IC50 (HMEC [7]): 6; Ratio IC50 (HT-29 [8]): 6 |
| 7.70 | 7.15 | 7.40 | 8.00 | 7.30 | 0.04 | COc1c(C)cnc(CN2CC(=O)N(CC(C)C)c3c(Cl)nc(N)nc32)c1C | Ratio IC50 (MCF7 [5]): 2; pIC50 (HMEC [4]): 6.89; Ratio IC50 (HMEC [6]): 13; Ratio IC50 (HMEC [7]): 6; Ratio IC50 (HT-29 [8]): 3 |
| – | – | – | – | – | > 5 | COc1c(C)cnc(Cn2c(=O)c(=O)[nH]c3c(Cl)nc(N)nc32)c1C | – |
| 5.74 | 5.59 | 5.53 | 5.95 | – | 1.55 | COc1c(C)cnc(CN2CC(=O)N(CCCN3CCOCC3)c3c(Cl)nc(N)nc32)c1C | – |
| 6.31 | 6.03 | 6.16 | 6.64 | – | 0.37 | COc1c(C)cnc(CN2c3nc(N)nc(Cl)c3NC(=O)[C@@H]2CC(C)C)c1C | – |
| 6.02 | 5.66 | 5.83 | 6.34 | 6.02 | 0.93 | COc1c(C)cnc(CN2CC(=O)N(C)c3c(Cl)nc(N)nc32)c1C | – |
| 6.89 | 6.55 | 6.85 | 7.22 | 7.22 | 0.1 | Cc1cnc(CN2CC(=O)N(CC(C)C)c3c(Cl)nc(N)nc32)c(C)c1Br | pIC50 (HMEC [4]): 6.74 |
| 7.70 | 7.40 | 7.05 | 8.30 | 7.10 | 0.06 | COc1c(C)cnc(CN2c3nc(N)nc(Cl)c3N(C(C)C)C(=O)[C@@H]2C(C)C)c1C | – |
